The values below come from patent US8716012B2, “Alpha thymosin peptides as vaccine enhancers” (priority 2009, dated 2014).

Series [1] in a line: Safety and tolerability observations in ferrets. The class given is in vivo. Conditions: TA1 0.285 or 0.570 mg/kg/dose s.c. As for the experimental part:
The vaccine (either Agrippal influPozzi seasonal vaccine, non-adjuvanted, or Fluad, MF-59 adjuvanted) was administered via intramuscular injection to the right leg at a full human dose of 0.5 mL. TA1 (0.285 or 0.570 mg/kg/dose) was administered by the subcutaneous route at a dose volume that, using a scaling factor for ferret/human dosing, corresponding to approximate human doses of […]. Animals were observed twice daily for mortality, general health, and both local and systemic signs of toxicity and illness as well as behavior under the responsibility of a professional veterinarian. Body weights were recorded prior to dosing only.

For series [2] the following is noted: CD-1 mice; TA1 0.3, 0.6 or 1.2 mg/kg/dose i.p. with Fluvirin.
The conditions of series [3]: cited from earlier work.
The conditions of series [4]: more than 3,000 patients (adults, elderly, children); cited from earlier work.
The conditions of series [5]: doses as high as 800 times the recommended human dose; cited from earlier work.

As for “Ac-SDAAVDTSSEITTKDLKEKKEVVEEAEN-OH [TA1]”, in series [1], the cage-side observations entry is reported as “no cage-side observations were noted”; the safety and tolerability result was “safe and well-tolerated”. Further, in series [2], the “clinical/cageside observations or body weight effects” value was “no test article-related clinical/cageside observations or body weight effects” and the survival result was “All animals survived until scheduled termination”. Further, the Peak plasma levels entry in series [3] (after injection of 3.2 mg of TA1 (about 40 μg/kg)) is on record as “approximately 100 ng/ml”. Also, the “half-life of TA1 in the circulation” value in series [3] (in vivo) is “about 2 hours”. Further, in series [3] (subcutaneously injected TA1), the plasma half-life entry was “about two”. Moreover, the “drug-related side effects in clinical studies” value in series [4] is recorded as “virtually no drug-related side effects”. The “adverse clinical signs in animal studies” value in series [5] is “no evidence of adverse clinical signs”.
